US20210395327A1, “Growth Hormone-Releasing Hormone Antagonists and Uses Thereof” (United States Government As Represented By The Department …, priority 2019, published 2021)
Non-standard residues stand in square brackets, D forms with d. Residues, ends and D or L forms follow the SMILES beside them. *: point of attachment. Phenylacetyl(2,3,4,5,6-F5) = O=C(Cc1c(F)c(F)c(F)c(F)c1F)*; Phe(F5) = N[C@@H](Cc1c(F)c(F)c(F)c(F)c1F)C(=O)O; Phe(4-Cl) = N[C@@H](Cc1ccc(Cl)cc1)C(=O)O; hArg = N=C(N)NCCCC[C@H](N)C(=O)O; 12Ado = NCCCCCCCCCCCC(=O)O; Nle = CCCC[C@H](N)C(=O)O; Orn = NCCC[C@H](N)C(=O)O; Abu = CC[C@H](N)C(=O)O; PhAc = O=C(Cc1ccccc1)*

Legend:
[1] = system: CFPAC-1 pancreatic cancer cells; assay: In vitro cell viability, CFPAC-1; type: cell-based, human; conditions: for In vitro relative inhibitory potency in comparison to MIA-602, CFPAC-1: Table 3B, 5 μM for 72 H, MIA-602 = 1
How it was run: (§1)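 Potency is reported as percent inhibition of viability compared with the reference antagonist MIA602, measured with CellTiter 96 aqueous one solution reagent. Serum-starved cells (0.5% FBS, 24 h) were treated for 72 h, mostly at 5 μM, otherwise 2 μM.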

MX-1 breast cancer cells = assay: In vitro cell viability, MX-1; type: cell-based, human; conditions: for In vitro relative inhibitory potency in comparison to MIA-602, MX-1: Table 3B, 5 μM for 72 H, MIA-602 = 1
How it was run: as §1

HT-29 colon cancer cells = assay: In vitro cell viability, HT-29; type: cell-based, human; conditions: Table 3B; 5 μM for 72 H; MIA-602 = 1
Protocol: The inhibitory effects of the various synthesized GHRH antagonists were tested in cell proliferation assays in various human cancer cell lines including stomach cancer (KATOIII, N87), colon cancer (HT-29), urothelial cancer (J82, RT4), pancreatic cancer (PANC-1, CFPAC-1), prostatic cancer (PC3), breast cancer (MX-1, HCC1806), ovarian cancer (SK-OV-3, OVCAR-3) and lung cancer (HCC827, H460).
(§2) Cell culture. Human cancer cell lines including pancreatic (PANC-1 and CFPAC-1), lung (HCC827 and H460), stomach (NCI-N87 and KATOIII), urothelial (J82, RT4), prostatic (PC3), breast (MX-1 and HCC 1806), colorectal (HT-29), and ovarian (SK-OV-3 and OVCAR-3) were obtained from the American Type Culture Collection (ATCC) and cultured at 37° C. in a humidified 95% air/5% CO2 atmosphere in the medium recommended by ATCC.
In vitro cell viability. Cell viability was analyzed as follows: cancer cells including pancreatic (PANC-1 and CFPAC-1), lung (HCC827 and H460), stomach (NCI-N87 and KATOIII), urothelial (J82, RT4), prostatic (PC3) and breast (MX-1 and HCC 1806), colorectal (HT-29) and ovarian (SK-OV-3 and OVCAR-3) were grown on 96 well plates to ˜60% confluence, the cells were starved for 24 h in culture medium containing 0.5% FBS. Cells were then treated with GHRH antagonists MIA602 AVR compounds at concentrations of 1, 2.5 or 5 μM, or vehicle (0.1% DMSO) in quintuplicates for 72 hours. The medium was replaced every 48 hours. Cell viability was measured using CellTiter 96 aqueous one solution kit (Promega). Inhibitory effects of tested AVR compounds in comparison to that of MIA602 are presented as inhibitory potency.
Inhibitory effects of selected AVR compounds in comparison to that of MIA602 are presented as inhibitory potency (e.g., percentage of inhibition). […] The cell lines tested including lung cancer HCC827 (FIG. 2A), pancreatic cancer CFPAC-1 (FIG. 2B), stomach cancer N87 (FIG. 2C), colon cancer HT-29 (FIG. 2D), breast cancers MX-1 and HCC1806 (FIGS. 2 E, F). Based on the results of cell proliferation assay after cancer cells were treated with antagonist at concentration of 5 μM for 72H, the relative inhibitory potency of AVR antagonists in comparison to MIA-602 is summarized in Table 3 A and B. Over 60 AVR compounds were tested in 12 cancer cell lines.
Based on the results of cell proliferation assay after cancer cells were treated with antagonist at concentration of 5 µM for 72H, * at concentration of 2 µM for 72 H.

[2] = system: pancreatic cancer CFPAC-1 xenograft; assay: Xenograft tumor growth in nude mice, CFPAC-1; type: in vivo; conditions: Table 4I, Pancreatic Ca CFPAC-1, 7 weeks; for % Inhibition: vs control
Protocol: (§3) The peptides' activity was compared with GHRH antagonist MIA-602. All statistical analyzses were performed from comparing GHRA antagonists to non-treated tumor (control).
(§4) Peptides and chemicals. GHRH antagonists MIA-602 and AVR-GHRH antagonists (see Table 2 above) were synthesized by solid phase methods and purified by HPLC. The peptides were dissolved in DMSO and further diluted in 10% 1,2-propanediol. The final concentration of peptides was 50 µg/ml in 10% 1,2-propanediol containing 0.1% of DMSO.
as §2, with “(NCI-N87), prostate” for “(NCI-N87 and KATOIII), urothelial (J82, RT4), prostatic”, “brest” for “breast”, “HCC-1806),” for “HCC 1806),”
(§5) Xenograft models of human cancers in nude mice. Female athymic (NCr nu/nu) nude mice, 5- to 6-weeks-old, obtained from the Envigo labs (Tampa, Fla.), were housed in laminar airflow cabinets under pathogen-free conditions with a 12-h light/12-h dark schedule, and were fed autoclaved standard chow and water. To generate mice with xenografted tumors, tumor xenografts were initiated by subcutaneous (s.c.) injection of 107 human cancer cells into female nude mice. After about 4 weeks the resulting tumors were dissected and collected after removing necrosis tissues. The tumors were then cut into particles with size of 3 mm3 and transplanted s.c. by trocar needle into experimental animals. When tumors grew to the size of 50-60 mm3 (by volume), mice were randomized into groups and treated daily for 4-8 weeks by subcutaneous administration of 5 μg of GHRH antagonists MIA-602 or AVR-compounds (2-10 μg as indicated), or vehicle solutions (0.1% DMSO in 10% 1,2-propanediol) respectively. Tumor sizes were measured weekly.
(§6) Statistical analysis. One-way ANOVA followed by Bonferroni comparison were performed. Data are expressed as Mean±SEM. To determine statistical significance between animal groups, two-tailed Student's t-test was conducted. Differences were considered significant when p<0.05.
(§7) Results. […] FIG. 1A-N represents in vivo inhibition of tumor growth during the treatment with GHRH antagonist MIA-602 and selected AVR antagonists in nude mice xenografted with various human tumors including pancreatic cancer PANC-1 (FIG. 1A) and CFPAC-1 (FIG. 1I); lung cancer HCC827 (FIGS. 1B, C) and H460 (FIG. 1H); stomach cancer N87 (FIGS. 1D-F); colon cancer HT-29 (FIG. 1G); breast cancer MX-1 and HCC-1806 (FIGS. 1J, K); ovarian cancer SK-OV-3 and OVACAR-3 (FIGS. 1 L, M) and prostate cancer PC3 (FIG. 1N). See also Table 5.

[3] = system: lung cancer HCC827 xenograft; assay: Xenograft tumor growth in nude mice, HCC827; type: in vivo; conditions: for % Inhibition: vs control
Protocol: as §3, §4
as §2, with “(NCI-N87), prostate” for “(NCI-N87 and KATOIII), urothelial (J82, RT4), prostatic”, “brest” for “breast”, “HCC-1806),” for “HCC 1806),”
as §5, §6, §7

[4] = system: lung cancer H460 xenograft; assay: Xenograft tumor growth in nude mice, H460; type: in vivo; conditions: Table 4H, Lung Ca H460, 4 weeks, 5 μg/day s.c.; for % Inhibition: vs control
Protocol: as §3, §4
as §2, with “(NCI-N87), prostate” for “(NCI-N87 and KATOIII), urothelial (J82, RT4), prostatic”, “brest” for “breast”, “HCC-1806),” for “HCC 1806),”
as §5, §6, §7

[5] = system: colon cancer HT-29 xenograft; assay: Xenograft tumor growth in nude mice, HT-29; type: in vivo; conditions: Table 4G, Colon Ca HT-29, 6 weeks; for % Inhibition: vs control
Protocol: as §3, §4
as §2, with “(NCI-N87), prostate” for “(NCI-N87 and KATOIII), urothelial (J82, RT4), prostatic”, “brest” for “breast”, “HCC-1806),” for “HCC 1806),”
as §5, §6, §7

[6] = system: breast cancer MX-1 xenograft; assay: Xenograft tumor growth in nude mice, MX-1; type: in vivo; conditions: Table 4J, Breast Ca MX-1, 4 weeks, 5 μg/day s.c.; for % Inhibition: vs control
Protocol: as §3, §4
as §2, with “(NCI-N87), prostate” for “(NCI-N87 and KATOIII), urothelial (J82, RT4), prostatic”, “brest” for “breast”, “HCC-1806),” for “HCC 1806),”
as §5, §6, §7

[7] = Table 4B, Lung Ca HCC827, 7 weeks, 5 μg/day s.c.
[8] = Table 4C, Lung Ca HCC827, 8 weeks, 2.5 μg/day s.c.
[9] = Table 4C, Lung Ca HCC827, 8 weeks, 5 μg/day s.c.
[10] = Table 4C, Lung Ca HCC827, 8 weeks, 10 μg/day s.c.
[11] = antagonist 5 μM for 72 h, cell proliferation assay, MIA602 = 1

Compound	In vitro relative inhibitory potency in comparison to MIA-602, CFPAC-1 [1]	In vitro relative inhibitory potency in comparison to MIA-602, MX-1 (MX-1 breast cancer cells)	In vitro relative inhibitory potency in comparison to MIA-602, HT-29 (HT-29 colon cancer cells)	Tumor Growth % ([2]; 5 μg/day s.c.) [%]	% Inhibition ([2]; 5 μg/day s.c.) [%]	Tumor Growth % [3, 7] [%]	% Inhibition [3, 7] [%]	Tumor Growth % [4] [%]	% Inhibition [4] [%]	Tumor Size (mm^3) ([5]; 5 μg/day s.c.)	% Inhibition ([5]; 5 μg/day s.c.) [%]	Tumor Growth % [6] [%]	% Inhibition [6] [%]	further results
CCCC[C@H](NC(=O)[C@@H](NC(=O)[C@H](CC(=O)O)NC(=O)[C@H](CCC(N)=O)NC(=O)[C@H](CC(C)C)NC(=O)[C@H](CC(C)C)NC(=O)[C@H](CCCCN)NC(=O)[C@H](CCCNC(=N)N)NC(=O)[C@H](C)NC(=O)[C@H](CO)NC(=O)[C@H](CC(C)C)NC(=O)[C@H](CCC(N)=O)NC(=O)[C@H](CC)NC(=O)[C@H](CC(C)C)NC(=O)[C@@H](NC(=O)[C@H](CCCCN)NC(=O)[C@H](CCCNC(=N)N)NC(=O)[C@H](Cc1c(F)c(F)c(F)c(F)c1F)NC(=O)[C@H](CCCCNC(=N)N)NC(=O)[C@H](C)NC(=O)[C@@H](NC(=O)[C@H](Cc1ccc(Cl)cc1)NC(=O)[C@@H](NC(=O)[C@H](C)NC(=O)[C@H](CC(=O)O)NC(=O)[C@@H](CCCNC(=N)N)NC(=O)[C@H](Cc1ccc(O)cc1)NC(=O)CCCCCCCCCCCNC(=O)Cc1c(F)c(F)c(F)c(F)c1F)[C@@H](C)CC)[C@@H](C)O)C(C)C)[C@@H](C)CC)C(=O)N[C@H](CCCNC(=N)N)C(=O)N[C@@H](CCCCNC(=N)N)C(=O)NCCCCCCCCCCCC(N)=O [AVR-353, 5FPhAC-Ada-Tyr-DArg-Asp-Ala-Ile-Cpa-Thr-Ala-Har-5FPhe-Arg-Lys-Val-Leu-Abu-Gln-Leu-Ser-Ala-Arg-Lys-Leu-Leu-Gln-Asp-Ile-Nle-DArg-Har-Ada-NH2] ({Phenylacetyl(2,3,4,5,6-F5)-12Ado}-Y[dR]DAI[Phe(4-Cl)]TA[hArg][Phe(F5)]RKVL[Abu]QLSARKLLQDI[Nle][dR][hArg][12Ado]-NH2)	2.922	2.001	1.222	1077.6	46.2	380.3	71.0	1335.0	60.5	494.70	31.8	774.2	30.5	Tumor Growth % ([2]; 2.5 μg/day s.c.): 1294.1%; % Inhibition ([2]; 2.5 μg/day s.c.): 34.3%; Tumor Growth % [3, 8]: 545.65%; % Inhibition [3, 8]: 35.1%; Tumor Growth % [3, 9]: 420.79%; % Inhibition [3, 9]: 50.0%; Tumor Growth % [3, 10]: 359.16%; % Inhibition [3, 10]: 57.3%; Tumor Size (mm^3) ([5]; 2 μg/day s.c.): 549.30 mm^3; % Inhibition ([5]; 2 μg/day s.c.): 24.2%
CCCC[C@H](NC(=O)[C@@H](NC(=O)[C@H](CC(=O)O)NC(=O)[C@H](CCC(N)=O)NC(=O)[C@H](CC(C)C)NC(=O)[C@H](CC(C)C)NC(=O)[C@H](CCCN)NC(=O)[C@H](Cc1c[nH]cn1)NC(=O)[C@H](C)NC(=O)[C@H](CO)NC(=O)[C@H](CC(C)C)NC(=O)[C@H](CCC(N)=O)NC(=O)[C@H](CC)NC(=O)[C@H](CC(C)C)NC(=O)[C@@H](NC(=O)[C@H](CCCN)NC(=O)[C@H](Cc1c[nH]cn1)NC(=O)[C@H](Cc1ccc(OC)cc1)NC(=O)[C@H](CCCCNC(=N)N)NC(=O)[C@H](C)NC(=O)[C@@H](NC(=O)[C@H](Cc1c(F)c(F)c(F)c(F)c1F)NC(=O)[C@@H](NC(=O)[C@H](C)NC(=O)[C@H](CC(=O)O)NC(=O)[C@@H](CCCNC(=N)N)NC(=O)[C@H](Cc1ccc(O)cc1)NC(=O)CCCCCCCCCCCNC(=O)Cc1ccccc1)[C@@H](C)CC)[C@@H](C)O)C(C)C)[C@@H](C)CC)C(=O)N[C@H](CCCNC(=N)N)C(=O)N[C@@H](CCCCNC(=N)N)C(N)=O [MIA-602, PhAC-Ada, Tyr D-Arg, Asp, Ala, Ile, 5FPhe, Thr, Ala, Har, Tyr(Me), His, Orn, Val, Leu, Abu, Gin, Leu, Ser, Ala, His, Om, Leu, Leu, Gin, Asp, Ile; Nle, D-Arg, Har NH2, reference compound] ({PhAc-12Ado}-Y[dR]DAI[Phe(F5)]TA[hArg]Y(Me)H[Orn]VL[Abu]QLSAH[Orn]LLQDI[Nle][dR][hArg]-NH2)	1	1	1	1587.5	19.5	662.2	49.5	1602.7	52.6	582.10	16.5	677.3	39.2	relative inhibitory potency in comparison to MIA-602, Pancreatic CFPAC-1 [1, 11]: 1; relative inhibitory potency in comparison to MIA-602, Breast MX-1 (MX-1 breast cancer cells; [11]): 1
